In PMC11731290, “Highly Active Oligoethylene Glycol Pleuromutilins via Systematic Linker Synthesis/One-Pot Attachment and a Microscale Solubility Method” (The Journal of Organic Chemistry, 2024):
Converted amounts (≈) assume the structure as drawn. Like-named read-outs stand apart in the source and are kept apart here.

How the values were obtained:
[1] = test system: methicillin-resistant S. aureus (MRSA) ATCC 43300; assay: Broth microdilution MIC, MRSA 43300; assay type: cell-based, Staphylococcus aureus; settings: for MIC: Staphylococcus aureus, read-out: Minimum inhibitory concentration, MRSA 43300; for improvement in activity relative to pleuromutilin (1): Gram-positive bacteria (S. aureus strains), MIC ratio to 1
S. aureus 6538P = assay: Broth microdilution MIC, S. aureus 6538P; assay type: cell-based; settings: Staphylococcus aureus, read-out: Minimum inhibitory concentration, S. aureus 6538P
[2] = test system: vancomycin-resistant Enterococcus (VRE); assay: Broth microdilution MIC, VRE; assay type: cell-based; settings: for MIC: Enterococcus, VRE, 24 h, read-out: Minimum inhibitory concentration, VRE
E. coli MC1061 = assay: Broth microdilution MIC, E. coli MC1061; assay type: cell-based; settings: Escherichia coli
E. coli ΔTolC = assay: Broth microdilution MIC, E. coli ΔTolC; assay type: cell-based; settings: Escherichia coli, read-out: Minimum inhibitory concentration, E. coli ΔTolC
[3] = set-up: method as in earlier work; settings: cited from earlier work
[4] = Microscale solubility by optical density (plate reader); settings: 37 °C, aqueous buffer, kinetic from dmso stock
[5] = broth microdilution, 37 °C, 16–18 h, MIC = lowest concentration inhibiting >90% of growth
[6] = broth microdilution, 37 °C, MIC = lowest concentration inhibiting >90% of growth
[7] = MC1061, broth microdilution, 37 °C, 16–18 h, MIC = lowest concentration inhibiting >90% of growth, read-out: Minimum inhibitory concentration, E. coli MC1061

## C=C[C@]1(C)C[C@@H](OC(=O)CO)[C@]2(C)[C@H](C)CC[C@]3(CCC(=O)[C@H]32)[C@@H](C)[C@@H]1O [compound 1, Pleuromutilin]
[1]
  MIC: 3.12 µM (≈ 1.18 µg/mL)
S. aureus 6538P
  MIC: 3.12 µM (≈ 1.18 µg/mL)
[2]
  MIC: 12.5 µM (≈ 4.73 µg/mL)
E. coli MC1061; MC1061, read-out: Minimum inhibitory concentration, E. coli MC1061
  MIC: 3.12 µM (≈ 1.18 µg/mL)
E. coli ΔTolC
  MIC: 3.12 µM (≈ 1.18 µg/mL)
[3]
  water solubility: 20 µg/mL (≈ 52.8 µM)
[4]
  solubility at 1 day: 50 to 100 µM (≈ 18.9 to 37.9 µg/mL)

## C=C[C@]1(C)C[C@@H](OC(=O)CSCCO)[C@]2(C)[C@H](C)CC[C@]3(CCC(=O)[C@H]32)[C@@H](C)[C@@H]1O [compound 25]
[1]; [5]
  MIC: 0.781 µM (≈ 0.343 µg/mL)
S. aureus 6538P; [5]
  MIC: 0.781 µM (≈ 0.343 µg/mL)
[2]; [6]
  MIC: 3.12 µM (≈ 1.37 µg/mL)
E. coli MC1061; [7]
  MIC: 3.12 µM (≈ 1.37 µg/mL)
E. coli ΔTolC
  MIC: 0.391 µM (≈ 0.172 µg/mL)
[4]
  solubility at 1 day: > 200 µM

## C=C[C@]1(C)C[C@@H](OC(=O)CSCCN=[N+]=[N-])[C@]2(C)[C@H](C)CC[C@]3(CCC(=O)[C@H]32)[C@@H](C)[C@@H]1O [compound 28]
[1]
  improvement in activity relative to pleuromutilin (1): 8 fold
[1]; [5]
  MIC: 0.391 µM (≈ 0.181 µg/mL)
S. aureus 6538P; [5]
  MIC: 0.391 µM (≈ 0.181 µg/mL)
[2]; [6]
  MIC: 1.56 µM (≈ 0.723 µg/mL)
[2]; MIC ratio to 1
  potency compared to 1, VRE: 8 fold
E. coli MC1061; [7]
  MIC: 12.5 µM (≈ 5.8 µg/mL)
E. coli ΔTolC
  MIC: 0.195 µM (≈ 0.0904 µg/mL)
[4]
  solubility at 1 day: 25 to 50 µM (≈ 11.6 to 23.2 µg/mL)

## C=C[C@]1(C)C[C@@H](OC(=O)CSCCOCCN=[N+]=[N-])[C@]2(C)[C@H](C)CC[C@]3(CCC(=O)[C@H]32)[C@@H](C)[C@@H]1O [compound 29]
[1]
  improvement in activity relative to pleuromutilin (1): 8 fold
  MIC: 0.391 µM (≈ 0.199 µg/mL)
S. aureus 6538P; [5]
  MIC: 0.781 µM (≈ 0.397 µg/mL)
[2]; [6]
  MIC: 3.12 µM (≈ 1.58 µg/mL)
E. coli MC1061; [7]
  MIC: 25 µM (≈ 12.7 µg/mL)
E. coli ΔTolC
  MIC: 0.391 µM (≈ 0.199 µg/mL)
[4]
  solubility at 1 day: 25 to 50 µM (≈ 12.7 to 25.4 µg/mL)

## C=C[C@]1(C)C[C@@H](OC(=O)CSCCOCCOCCN=[N+]=[N-])[C@]2(C)[C@H](C)CC[C@]3(CCC(=O)[C@H]32)[C@@H](C)[C@@H]1O [compound 30]
[1]; [5]
  MIC: 0.781 µM (≈ 0.431 µg/mL)
S. aureus 6538P; [5]
  MIC: 0.781 µM (≈ 0.431 µg/mL)
[2]; [6]
  MIC: 3.12 µM (≈ 1.72 µg/mL)
E. coli MC1061; [7]
  MIC: 25 µM (≈ 13.8 µg/mL)
E. coli ΔTolC
  MIC: 0.391 µM (≈ 0.216 µg/mL)
[4]
  solubility at 1 day: 50 to 100 µM (≈ 27.6 to 55.2 µg/mL)

## C=C[C@]1(C)C[C@@H](OC(=O)CSCCOCCOCCOCCN=[N+]=[N-])[C@]2(C)[C@H](C)CC[C@]3(CCC(=O)[C@H]32)[C@@H](C)[C@@H]1O [compound 31]
[1]; [5]
  MIC: 0.781 µM (≈ 0.465 µg/mL)
S. aureus 6538P; [5]
  MIC: 0.781 µM (≈ 0.465 µg/mL)
[2]; [6]
  MIC: 3.12 µM (≈ 1.86 µg/mL)
E. coli MC1061; [7]
  MIC: 50 µM (≈ 29.8 µg/mL)
E. coli ΔTolC
  MIC: 0.391 µM (≈ 0.233 µg/mL)
[4]
  solubility at 1 day: 100 to 200 µM (≈ 59.6 to 119 µg/mL)

## C=C[C@]1(C)C[C@@H](OC(=O)CSCCOCCOCCOCCOCCN=[N+]=[N-])[C@]2(C)[C@H](C)CC[C@]3(CCC(=O)[C@H]32)[C@@H](C)[C@@H]1O [compound 32]
[1]; [5]
  MIC: 0.781 µM (≈ 0.5 µg/mL)
S. aureus 6538P; [5]
  MIC: 0.781 µM (≈ 0.5 µg/mL)
[2]; [6]
  MIC: 3.12 µM (≈ 2 µg/mL)
E. coli MC1061; [7]
  MIC: 25 µM (≈ 16 µg/mL)
E. coli ΔTolC
  MIC: 0.391 µM (≈ 0.25 µg/mL)
[4]
  solubility at 1 day: 100 to 200 µM (≈ 64 to 128 µg/mL)

## C=C[C@]1(C)C[C@@H](OC(=O)CSCCOCCO)[C@]2(C)[C@H](C)CC[C@]3(CCC(=O)[C@H]32)[C@@H](C)[C@@H]1O [compound 43]
[1]; [5]
  MIC: 0.781 µM (≈ 0.377 µg/mL)
S. aureus 6538P; [5]
  MIC: 0.781 µM (≈ 0.377 µg/mL)
[2]; [6]
  MIC: 3.12 µM (≈ 1.51 µg/mL)
E. coli MC1061; [7]
  MIC: 6.25 µM (≈ 3.02 µg/mL)
E. coli ΔTolC
  MIC: 0.391 µM (≈ 0.189 µg/mL)
[4]
  solubility at 1 day: > 200 µM

## C=C[C@]1(C)C[C@@H](OC(=O)CSCCOCCOCCO)[C@]2(C)[C@H](C)CC[C@]3(CCC(=O)[C@H]32)[C@@H](C)[C@@H]1O [compound 44]
[1]; [5]
  MIC: 1.56 µM (≈ 0.822 µg/mL)
S. aureus 6538P; [5]
  MIC: 0.781 µM (≈ 0.411 µg/mL)
[2]; [6]
  MIC: 3.12 µM (≈ 1.64 µg/mL)
E. coli MC1061; [7]
  MIC: 12.5 µM (≈ 6.58 µg/mL)
E. coli ΔTolC
  MIC: 0.391 µM (≈ 0.206 µg/mL)
[4]
  solubility at 1 day: > 200 µM

## C=C[C@]1(C)C[C@@H](OC(=O)CSCCOCCOCCOCCO)[C@]2(C)[C@H](C)CC[C@]3(CCC(=O)[C@H]32)[C@@H](C)[C@@H]1O [compound 45]
[1]; [5]
  MIC: 1.56 µM (≈ 0.89 µg/mL)
S. aureus 6538P
  MIC: 0.781 µM (≈ 0.446 µg/mL)
[2]; [6]
  MIC: 3.12 µM (≈ 1.78 µg/mL)
E. coli MC1061; [7]
  MIC: 12.5 µM (≈ 7.13 µg/mL)
E. coli ΔTolC
  MIC: 0.781 µM (≈ 0.446 µg/mL)
[4]
  solubility at 1 day: > 200 µM

## C=C[C@]1(C)C[C@@H](OC(=O)CSCCOCCOCCOCCOCCO)[C@]2(C)[C@H](C)CC[C@]3(CCC(=O)[C@H]32)[C@@H](C)[C@@H]1O [compound 46]
[1]; [5]
  MIC: 1.56 µM (≈ 0.959 µg/mL)
S. aureus 6538P
  MIC: 0.781 µM (≈ 0.48 µg/mL)
[2]; [6]
  MIC: 3.12 µM (≈ 1.92 µg/mL)
E. coli MC1061; [7]
  MIC: 12.5 µM (≈ 7.69 µg/mL)
E. coli ΔTolC
  MIC: 0.781 µM (≈ 0.48 µg/mL)
[4]
  solubility at 1 day: > 200 µM

## C=C[C@]1(C)C[C@@H](OC(=O)CSCCOCCOCCOCCOCCOCCO)[C@]2(C)[C@H](C)CC[C@]3(CCC(=O)[C@H]32)[C@@H](C)[C@@H]1O [compound 47]
[1]; [5]
  MIC: 1.56 µM (≈ 1.03 µg/mL)
S. aureus 6538P
  MIC: 0.781 µM (≈ 0.515 µg/mL)
[2]; [6]
  MIC: 3.12 µM (≈ 2.06 µg/mL)
E. coli MC1061; [7]
  MIC: 25 µM (≈ 16.5 µg/mL)
E. coli ΔTolC
  MIC: 0.781 µM (≈ 0.515 µg/mL)
[4]
  solubility at 1 day: > 200 µM

## C=C[C@]1(C)C[C@@H](OC(=O)CSCCOCCOCCOCCOCCOCCOCCOCCO)[C@]2(C)[C@H](C)CC[C@]3(CCC(=O)[C@H]32)[C@@H](C)[C@@H]1O [compound 48]
[1]; [5]
  MIC: 3.12 µM (≈ 2.33 µg/mL)
S. aureus 6538P
  MIC: 1.56 µM (≈ 1.17 µg/mL)
[2]; [6]
  MIC: 3.12 µM (≈ 2.33 µg/mL)
E. coli MC1061; [7]
  MIC: 25 µM (≈ 18.7 µg/mL)
E. coli ΔTolC
  MIC: 1.56 µM (≈ 1.17 µg/mL)
[4]
  solubility at 1 day: > 200 µM
